Data on four compounds can be found in PMC5464344, “Analgesic and anti‐inflammatory properties of novel, selective, and potent EP4 receptor antagonists” (Pharmacology Research & Perspectives, 2017).

As usually defined, the Ki is the dissociation constant of the complex between target and ligand, obtained from inhibition or displacement. Broadly, the IC50 is the point on the concentration scale where inhibition reaches its midpoint.

Test [1] has as its target T1, IP (PGI2) (h), agonist radioligand (Homo sapiens, UniProt P43119).
T1 construct: CEREP (contract laboratory that ran the assay)
Description: Off-target activity (CEREP), IP. The note with it: 10 μmol/L; obtained at CEREP (Blanco et al. 2016c); read-out: % Inh IP (PGI2) (h), agonist radioligand. Format: binding. From the text:
(§1) The off‐target activity related to prostaglandin pathway (Table 2) were obtained at CEREP (Blanco et al. 2016c).

Test [2] addresses T2, TP (TXA2/PGH2) (h); agonist effect (Homo sapiens, UniProt P21731).
T2 construct: CEREP (contract laboratory that ran the assay)
T2 sequence (P21731 1-343): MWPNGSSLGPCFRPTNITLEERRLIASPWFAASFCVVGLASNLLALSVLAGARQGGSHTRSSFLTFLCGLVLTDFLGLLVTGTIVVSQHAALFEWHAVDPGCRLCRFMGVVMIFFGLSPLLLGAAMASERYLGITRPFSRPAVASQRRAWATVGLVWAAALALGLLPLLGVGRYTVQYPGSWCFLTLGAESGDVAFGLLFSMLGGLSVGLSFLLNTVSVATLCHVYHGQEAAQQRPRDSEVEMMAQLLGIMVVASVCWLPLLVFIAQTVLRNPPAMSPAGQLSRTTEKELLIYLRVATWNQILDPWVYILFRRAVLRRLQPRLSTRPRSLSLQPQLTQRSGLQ
Put plainly: Off-target activity (CEREP), TP agonist effect. Format: biochemical. Particulars: 10 μmol/L; obtained at CEREP (Blanco et al. 2016c).
From the text: as §1

The target of the next test is T3, human EP2 receptor (Homo sapiens, UniProt P43116).
T3 construct: host or cells: HEK293, transient; membrane preparation
T3 sequence (P43116 whole entry): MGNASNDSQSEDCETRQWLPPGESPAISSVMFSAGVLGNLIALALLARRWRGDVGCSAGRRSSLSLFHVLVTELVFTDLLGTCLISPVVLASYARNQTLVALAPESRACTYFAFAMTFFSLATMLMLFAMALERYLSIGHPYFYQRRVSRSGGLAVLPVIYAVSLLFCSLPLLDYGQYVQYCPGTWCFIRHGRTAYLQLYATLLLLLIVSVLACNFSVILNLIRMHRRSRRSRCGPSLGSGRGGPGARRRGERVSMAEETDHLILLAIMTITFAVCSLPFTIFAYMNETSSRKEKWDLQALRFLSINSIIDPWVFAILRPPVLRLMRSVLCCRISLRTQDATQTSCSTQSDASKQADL
Put plainly: [3H]-PGE2 receptor binding assay, EP2 membranes. The protocol:
Receptor binding assays were done using membrane preparations of HEK 293 cells transfected with various prostanoid receptors using previously published procedure (Nakao et al. 2007). EP1 and EP4 membranes were prepared from recombinant HEK293 cells stably expressing human EPl receptor (GenBank Accession # AY275470, Clone ID PER0100000, UMR cDNA Resource Center, Rolla, MO) or human EP4 receptor. EP2 and EP3 membranes were prepared from HEK293 cells transiently transfected with human EP2 receptor (GenBank Accession # AY275471, Clone ID PER0200000, UMR cDNA Resource Center, Rolla, MO) or human EP3 receptor (GenBank Accession # AY429108, Clone ID PER3VI0000, UMR cDNA Resource Center, Rolla, MO) plasmids. Frozen cell pellets were homogenized in homogenization buffer (10 mmol/L Tris‐HCl, pH7.4, 250 mmol/L sucrose, 1 mmol/L EDTA, 0.3 mmol/L indomethacin and protease inhibitor cocktail with EDTA (Roche Molecular Biochemicals, catalog # 1691498)) using a Teflon/glass homogenizer. After a low speed centrifugation (200g for 15 min at 4°C) the supernatant was subjected to high speed centrifugation (30,000g for 60 min at 4°C). Membrane protein preparation was aliquoted and quick frozen on dry ice prior to storage at −80°C. […] Compounds were tested in a 96‐well format using a three‐fold dilution series to generate 10‐point curves. […] The binding reaction was performed in 200 μL MES buffer (10 mmol/L MES, pH 6.0, 10 mmol/L MgCl2, and l mmol/L EDTA) using polystyrene 96‐well plates. […] The membranes were harvested by filtration (TomTek harvester), washed four times with cold buffer (10 mmol/L MES, pH 6.0, 10 mmol/L MgCl2), dried in a 60°C oven, and the radioactivity was quantified as counts per min (CPM) using a TopCount detector. […] Data were analyzed using a 4‐parameter nonlinear logistic equation. K i Conversion from IC50 Values (K i = […] where [L] is the ligand concentration). Results are expressed as the geometric mean ± standard deviation or geometric mean ± standard error as noted.

Test [3] relates to male Lewis rats, MIA injected knee. Description: Rat MIA model of pain (incapacitance testing). Format: in vivo. Particulars: 1 h post dose, P < 0.05 by Dunnett's test. The protocol: For the monoiodoacetate (MIA) and adjuvant induced arthritis (AIA) studies, male Lewis rats (Envigo, Indianapolis, IN) of approximately 8 weeks of age at the time of disease induction were used. For collagen induced arthritis studies (CIA) female Lewis rats (Charles River) weighing 150–170 g were used. Rats were housed in groups of 2 or 3 per cage and maintained in a constant temperature, and on a 12 h light/12 h dark cycle. Animals had free access to food and water at all times except during data collection.
The right knees of rats were injected with 0.3 mg of MIA (Sigma Aldrich) in 50 μL of saline and the left knees with 50 μL of saline on day zero. These intra‐articular injections are directly into the synovial cavity of the flexed knee joint through the patella ligament. Twelve days later, the rats were randomized into groups of five rats using body weight and the Block Randomized Allocation Tool. […] Reference compound CJ‐042,794 was also tested in the MIA model on day 14 post MIA injection at doses of 1, 3, 10, 30, and 50 mg/kg with the vehicle being 10% Solutol in PEG400 (n = 4 rats per group). The nonsteroidal anti‐inflammatory drug (NSAID) diclofenac was included in all studies at a dose of 5 mg/kg as a positive control. […] Pain was measured using incapacitance testing. […]

Another test has as its target Human EP4 (Homo sapiens, UniProt P35408). Description: EP4 cAMP antagonist assay (HTRF), human EP4. In kind it is cell-based. Particulars: read-out: cAMP Antagonism (hEP4) Human EP4 IC50. The protocol: Human EP4 (GenBank Accession # AY429109, Clone ID PER0400000, UMR cDNA Resource Center, Rolla, MO) was stably expressed in HEK293 cells. Rat EP4 cDNA (GenBank Accession# NM_03276) was cloned into pcDNA 3.1 vector and stably transfected into HEK293 cells. The cell lines were maintained in DMEM (invitrogen) supplemented with 10% fetal bovine serum (FBS), 1 mmol/L sodium pyruvate, 10 mmol/L HEPES, 500 μg/mL geneticin and 2 mmol/L L‐glutamine. Confluent cultures were grown at 37°C in an atmosphere containing 5% CO2. […] Immediately prior to the assay, cells were thawed with DMEM and suspended in cAMP assay buffer (HBSS with 0.1% BSA, 20 mmol/L HEPES and 200 μmol/L IBMX).
To measure the cAMP levels, cAMP‐d2 conjugate and anti cAMP‐cryptate conjugate in lysis buffer were incubated with the treated cells at room temperature for 1 h. […] The raw data were converted to cAMP (nmol/L) using a cAMP standard curve generated for each experiment. Data were analyzed using a 4‐parameter nonlinear logistic equation. Results are expressed as the geometric mean ± standard deviation or geometric mean ± standard error as noted.

Where [4] appears, read: HEK293 membranes, [3H]-PGE2, geometric mean ± SEM, read-out: hEP1-4 receptor binding EP2 Ki.

Like-named read-outs stand apart in the source and are kept apart here.

Sequence of Human EP4 (P35408 whole entry): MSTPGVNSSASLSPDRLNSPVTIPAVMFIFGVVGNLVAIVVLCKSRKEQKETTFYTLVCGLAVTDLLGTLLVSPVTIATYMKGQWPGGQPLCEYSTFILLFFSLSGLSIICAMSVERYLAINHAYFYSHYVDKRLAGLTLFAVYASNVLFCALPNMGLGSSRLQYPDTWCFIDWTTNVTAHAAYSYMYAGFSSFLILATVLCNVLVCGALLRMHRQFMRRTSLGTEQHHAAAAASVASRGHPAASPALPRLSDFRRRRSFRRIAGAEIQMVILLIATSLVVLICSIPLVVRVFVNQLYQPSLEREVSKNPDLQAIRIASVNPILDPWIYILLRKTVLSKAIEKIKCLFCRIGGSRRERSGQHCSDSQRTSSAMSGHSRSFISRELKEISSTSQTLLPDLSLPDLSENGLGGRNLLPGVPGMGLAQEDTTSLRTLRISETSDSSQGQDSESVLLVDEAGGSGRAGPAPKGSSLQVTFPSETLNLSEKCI
T1 sequence (P43119 whole entry): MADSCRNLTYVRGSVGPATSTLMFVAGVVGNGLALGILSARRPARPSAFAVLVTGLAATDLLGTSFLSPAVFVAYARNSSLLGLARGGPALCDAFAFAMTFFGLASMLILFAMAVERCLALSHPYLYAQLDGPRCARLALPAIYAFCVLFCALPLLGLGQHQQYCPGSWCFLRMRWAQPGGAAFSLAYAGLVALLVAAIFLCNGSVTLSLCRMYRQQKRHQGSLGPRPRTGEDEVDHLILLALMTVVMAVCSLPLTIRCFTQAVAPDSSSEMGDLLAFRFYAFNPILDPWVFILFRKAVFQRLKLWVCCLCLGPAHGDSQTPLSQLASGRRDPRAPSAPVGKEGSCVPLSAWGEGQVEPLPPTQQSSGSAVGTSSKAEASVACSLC

With `C[C@H](NC(=O)[C@H]1CCCCN1CCOc1ccccc1)c1ccc(C(=O)O)cc1` [Compound 2], the inhibition at 10 µM in test [1] was determined as 9%. Besides, the “% Inh TP (TXA2/PGH2) (h); agonist effect” value in test [2] is recorded as −2.00%. Also, the Ki was determined as 1210 ± 509 nM at human EP2 receptor (setting [4]) and 1200 nM on human EP2 receptor (read-out: Ki for EP2 receptor). For the same compound, the “pain efficacy (normalization of hind paw weight distribution, incapacitance testing)” value in test [3] (1, 3, and 10 mg/kg oral) is given as “effective”.

`Cc1ccc(N2CCC(O)CC2)nc1C(=O)Nc1c(C)cc(C(=O)O)cc1C` [Compound 1]: the inhibition at 10 µM in test [1] is -4%. Besides, the IC50 on Human EP4 was ~6 nM. The “% Inh TP (TXA2/PGH2) (h); agonist effect” value in test [2] was −4.00%.

Turning to `C[C@H](NC(=O)c1cc(Cl)ccc1Oc1ccc(F)cc1)c1ccc(C(=O)O)cc1` [CJ‐042,794, reference compound], the IC50 on Human EP4 came to 4.5 ± 1.85 nM. Also, on human EP2 receptor (setting [4]), the Ki was determined as 931 ± 457 nM. For the same compound, the “pain efficacy (incapacitance testing) versus vehicle” value in test [3] (3, 10, 30, and 50 mg/kg oral) is on record as “significantly different from vehicle”.

Consider `Cc1ccc(-c2cccc(CO)c2)nc1C(=O)Nc1c(C)ccc(C(=O)O)c1C` [Compound 3], for which, on Human EP4 (HEK293 cells stably expressing human EP4, PGE2 at EC80, geometric mean ± SEM), the IC50 is 2.4 ± 1.4 nM. The Ki on human EP2 receptor (setting [4]) was > 18900 nM.
